# Measured values: PubChem BioAssay (NCI)
#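 How tested: cells in 96-well plates exposed to compound for 48 hours at five concentrations. TGI is the concentration that stops growth completely.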
# What was measured:
# Assay in all cases: NCI tumour cell line growth inhibition, 48 h
# [1] = tested on: RPMI-8226 leukemia
# [2] = tested on: UACC-257 melanoma
# [3] = tested on: NCI-H226 lung
# [4] = tested on: CCRF-CEM leukemia
# [5] = tested on: NCI-H522 lung
# [6] = tested on: EKVX NSCLC
# [7] = tested on: XF 498 CNS
# [8] = tested on: RXF 393 renal
# [9] = tested on: LOX IMVI melanoma
# [10] = tested on: M14 melanoma
# [11] = tested on: 786-0 renal
# [12] = tested on: HOP-62 NSCLC
# [13] = tested on: A549 NSCLC
# [14] = tested on: HCT-116 colon
# [15] = tested on: MCF7 breast
# [16] = tested on: U251 CNS
# [17] = tested on: DU-145 prostate
# [18] = tested on: KM12 colon
# [19] = tested on: ACHN renal
# [20] = tested on: TK-10 renal
# [21] = tested on: SN12C renal
# [22] = tested on: OVCAR-3 ovarian
# [23] = tested on: HCT-15 colon
# [24] = tested on: NCI-H460 lung
# [25] = tested on: T-47D breast
# [26] = tested on: HOP-18 NSCLC
# [27] = tested on: SF-268 CNS
# [28] = tested on: LXFL 529 NSCLC
# [29] = tested on: KM20L2 colon
# [30] = tested on: SNB-75 CNS
# [31] = tested on: COLO 205 colon
# [32] = tested on: M19-MEL melanoma
# [33] = tested on: RXF-631 renal
# [34] = tested on: SR leukemia
# [35] = tested on: SNB-19 CNS
# [36] = tested on: SK-MEL-2 melanoma
# [37] = tested on: HOP-92 NSCLC
# [38] = tested on: HCC-2998 colon
# [39] = tested on: HL-60(TB) leukemia
# [40] = tested on: BT-549 breast
# [41] = tested on: HS 578T breast
# [42] = tested on: NCI-H23 lung
# [43] = tested on: MALME-3M melanoma
# [44] = tested on: SK-OV-3 ovarian
# [45] = tested on: SW-620 colon
# [46] = tested on: MOLT-4 leukemia
# [47] = tested on: DMS 273 small cell lung
# [48] = tested on: SK-MEL-28 melanoma
# [49] = tested on: SK-MEL-5 melanoma
# [50] = tested on: SF-295 CNS
# [51] = tested on: OVCAR-5 ovarian
# [52] = tested on: UACC-62 melanoma
# [53] = tested on: UO-31 renal
# [54] = tested on: K-562 leukemia
# [55] = tested on: SF-539 CNS
# [56] = tested on: CAKI-1 renal
# [57] = tested on: MDA-MB-231 breast
# [58] = tested on: PC-3 prostate
# [59] = tested on: OVCAR-8 ovarian
# [60] = tested on: SNB-78 CNS
# [61] = tested on: A498 renal
# [62] = tested on: IGROV1 ovarian
# [63] = tested on: OVCAR-4 ovarian
# [64] = tested on: HT29 colon
# [65] = tested on: MDA-N
# [66] = tested on: DLD-1 colon
smiles,measurement,setting,value
O=C1c2ccccc2C(=O)c2sc(Nc3ccccc3Cl)nc21,TGI,[1],10.6 µM
same,TGI,[2],21.4 µM
same,TGI,[3],28.6 µM
same,TGI,[4],9.56 µM
same,TGI,[5],9.61 µM
same,TGI,[6],22.2 µM
same,TGI,[7],30.2 µM
same,TGI,[8],30 µM
same,TGI,[9],6.63 µM
same,TGI,[10],13.1 µM
same,TGI,[11],27.9 µM
same,TGI,[12],33.3 µM
same,TGI,[13],46.2 µM
same,TGI,[14],22.9 µM
same,TGI,[15],40.6 µM
same,TGI,[16],19.5 µM
same,TGI,[17],31.4 µM
same,TGI,[18],29.6 µM
same,TGI,[19],14.9 µM
same,TGI,[20],34.2 µM
same,TGI,[21],21.1 µM
same,TGI,[22],25.8 µM
same,TGI,[23],29.6 µM
same,TGI,[24],29.6 µM
same,TGI,[25],34.5 µM
same,TGI,[26],27.2 µM
same,TGI,[27],23.7 µM
same,TGI,[28],5.56 µM
same,TGI,[29],39.5 µM
same,TGI,[30],27.1 µM
same,TGI,[31],29 µM
same,TGI,[32],3.17 µM
same,TGI,[33],40.6 µM
same,TGI,[34],12.1 µM
same,TGI,[35],28.1 µM
same,TGI,[36],34.5 µM
same,TGI,[37],27.9 µM
same,TGI,[38],34.9 µM
same,TGI,[39],4.18 µM
same,TGI,[40],29.5 µM
same,TGI,[41],80.4 µM
same,TGI,[42],17.5 µM
same,TGI,[43],28 µM
same,TGI,[44],33.7 µM
same,TGI,[45],8.97 µM
same,TGI,[46],11.1 µM
same,TGI,[47],31.9 µM
same,TGI,[48],30.2 µM
same,TGI,[49],16.4 µM
same,TGI,[50],30.1 µM
same,TGI,[51],41 µM
same,TGI,[52],17.3 µM
same,TGI,[53],24.4 µM
same,TGI,[54],6.8 µM
same,TGI,[55],31.4 µM
same,TGI,[56],18.4 µM
same,TGI,[57],13.7 µM
same,TGI,[58],25.9 µM
same,TGI,[59],20.3 µM
same,TGI,[60],40.8 µM
same,TGI,[61],32.2 µM
same,TGI,[62],28.3 µM
same,TGI,[63],22.8 µM
same,TGI,[64],45.4 µM
same,TGI,[65],6.13 µM
same,TGI,[66],25.1 µM
